Test results taken from US20040018582A1, “Genes and gene products that confer susceptibility to vancomycin derivative antibiotics and methods and assays for identifying bifunctional glycopeptide antibiotics using same” (priority 2001, published 2004).
Values after ≈ are worked out from the molar mass of the structure shown.

Key:
Assay type in all cases: cell-based, Escherichia coli
[1] = tested on: mutant strain BE103; assay: MIC, standard microdilution in LB medium; settings: 35° C., 22 hours
Experimental: (§1) The imp mutation alters the permeability of the outer membrane and confers sensitivity to vancomycin and its carbohydrate derivatives as well as to moenomycin. BE100 is an isolate of BAS849 (MC4100 ΔlamB106 imp 4213). B. A. Sampson et al., Genetics 122, 491(1989).
(§2) MICs were determined against strains grown in LB medium in a standard microdilution format.

[2] = tested on: wild-type strain BE100 (E. coli imp); assay: MIC, standard microdilution in LB medium; settings: 35° C., 22 hours
Experimental: as §1, §2

[3] = tested on: mutant strain BE102; assay: MIC, standard microdilution in LB medium; settings: 35° C., 22 hours
Experimental: as §1, §2

[4] = tested on: mutant strain BE101; assay: MIC, standard microdilution in LB medium; settings: 35° C., 22 hours
Experimental: as §1, §2

[5] = tested on: mutant strains BE101, BE102, BE103 compared to wild-type BE100; assay: Comparison of antibiotic effectiveness in mutant (yfgL) strains versus wild-type strain; settings: for resistance or sensitivity of the mutants: mutants vs parent strain BE100, by MIC
Experimental: The present inventions are directed to methods of identifying a compound having transglycosylase inhibitory activity. The method includes contacting the compound with cells having the wild type yfgL gene and then measuring the antibiotic effectiveness and contacting the compound with cells having the mutant yfgL gene and measuring the antibiotic effectiveness the compound.
as §2
Some antibiotics, for example the β-lactams, show a decrease in their bactericidal effectiveness against slow-growing cells. E. Tuomanen et al., J. Gen. Microbiol. 132, 1297 (1986). […] R. Kerns et al., J. Am. Chem. Soc. 122, 12608 (2000).
Examples of transpeptidase inhibitors include, but are not limited to, ampicillin, penicillin or cefoxitin (p-lactams). Compounds that inhibit cytoplasmic steps of peptidoglycan synthesis include, but are not limited to, fosfomycin and cycloserine.

[6] = tested on: wild-type BE100; assay: Time-kill curves at MIC; settings: wild-type BE100, vancomycin 0.8 μg/ml
Experimental: (§3) FIGS. 1C and 1D represent time-kill curves of wild-type BE100 (C) and mutant strain BE101 (D) in the presence of antibiotics at their MICs. A standard microdilution assay was performed in LB. Samples were removed and serial dilutions were plated onto antibiotic-free agar after 15, 30, 60, 120 and 240 minutes of exposure to each antibiotic.

[7] = tested on: mutant strain BE101; assay: Time-kill curves at MIC; settings: mutant BE101, vancomycin […]
Experimental: as §3

Compound	minimum inhibitory concentration (MIC) [1]	minimum inhibitory concentration (MIC) [2]	minimum inhibitory concentration (MIC) [3]	minimum inhibitory concentration (MIC) [4]	resistance or sensitivity of the mutants [5]	step of peptidoglycan synthesis blocked, found using wild type/mutant yfgL assay [5]	times less active in resistant strains compared to the wild-type strain ([5]; all three resistant strains vs wild-type)	survival on exposure at MIC [6]	survival on exposure at MIC [7]
Desleucyl chlorobiphenyl vancomycin	>125 µg/mL	25 µg/mL	>125 µg/mL	>125 µg/mL					
gentamicin					sensitive				
CC1(C)S[C@@H]2[C@H](NC(=O)Cc3ccccc3)C(=O)N2[C@H]1C(=O)O [Penicillin G]	3.2 µg/mL (≈ 9.57 µM)	3.2 µg/mL (≈ 9.57 µM)	1.6 µg/mL (≈ 4.78 µM)	3.2 µg/mL (≈ 9.57 µM)					
Teicoplanin	4 µg/mL	0.25 µg/mL	3 µg/mL	16 µg/mL	resistant	block the transglycosylation step of peptidoglycan synthesis			
Moenomycin	3.2 µg/mL	0.03 µg/mL	0.8 µg/mL	1.6 µg/mL			27-100 times		
CC[C@H]1OC(=O)[C@H](C)[C@@H](O[C@H]2C[C@@](C)(OC)[C@@H](O)[C@H](C)O2)[C@H](C)[C@@H](O[C@@H]2O[C@H](C)C[C@H](N(C)C)[C@H]2O)[C@](C)(O)C[C@@H](C)C(=O)[C@H](C)[C@@H](O)[C@]1(C)O [erythromycin]					sensitive				
CN[C@H](CC(C)C)C(=O)N[C@H]1C(=O)N[C@@H](CC(N)=O)C(=O)N[C@H]2C(=O)N[C@H]3C(=O)N[C@H](C(=O)N[C@H](C(=O)O)c4cc(O)cc(O)c4-c4cc3ccc4O)[C@H](O)c3ccc(c(Cl)c3)Oc3cc2cc(c3O[C@@H]2O[C@H](CO)[C@@H](O)[C@H](O)[C@H]2O[C@H]2C[C@](C)(N)[C@H](O)[C@H](C)O2)Oc2ccc(cc2Cl)[C@H]1O [Vancomycin]	1.6 µg/mL (≈ 1.1 µM)	0.8 µg/mL (≈ 0.552 µM)	1.6 µg/mL (≈ 1.1 µM)	1.6 µg/mL (≈ 1.1 µM)	did not show any resistance			prevented growth of all the strains but did not kill them	prevented growth of all the strains but did not kill them
